Experimental findings from US11944624B2, “Peptide and small molecule agonists of EphA and their uses” (CASE WESTERN RESERVE UNIVERSITY, priority 2017, dated 2024) are described below.

Test [1] has as its target T1, EphA1 (Homo sapiens, UniProt P21709).
T1 construct: expressed in transfected cells; host or cells: HEK 293
T1 sequence (P21709 26-976): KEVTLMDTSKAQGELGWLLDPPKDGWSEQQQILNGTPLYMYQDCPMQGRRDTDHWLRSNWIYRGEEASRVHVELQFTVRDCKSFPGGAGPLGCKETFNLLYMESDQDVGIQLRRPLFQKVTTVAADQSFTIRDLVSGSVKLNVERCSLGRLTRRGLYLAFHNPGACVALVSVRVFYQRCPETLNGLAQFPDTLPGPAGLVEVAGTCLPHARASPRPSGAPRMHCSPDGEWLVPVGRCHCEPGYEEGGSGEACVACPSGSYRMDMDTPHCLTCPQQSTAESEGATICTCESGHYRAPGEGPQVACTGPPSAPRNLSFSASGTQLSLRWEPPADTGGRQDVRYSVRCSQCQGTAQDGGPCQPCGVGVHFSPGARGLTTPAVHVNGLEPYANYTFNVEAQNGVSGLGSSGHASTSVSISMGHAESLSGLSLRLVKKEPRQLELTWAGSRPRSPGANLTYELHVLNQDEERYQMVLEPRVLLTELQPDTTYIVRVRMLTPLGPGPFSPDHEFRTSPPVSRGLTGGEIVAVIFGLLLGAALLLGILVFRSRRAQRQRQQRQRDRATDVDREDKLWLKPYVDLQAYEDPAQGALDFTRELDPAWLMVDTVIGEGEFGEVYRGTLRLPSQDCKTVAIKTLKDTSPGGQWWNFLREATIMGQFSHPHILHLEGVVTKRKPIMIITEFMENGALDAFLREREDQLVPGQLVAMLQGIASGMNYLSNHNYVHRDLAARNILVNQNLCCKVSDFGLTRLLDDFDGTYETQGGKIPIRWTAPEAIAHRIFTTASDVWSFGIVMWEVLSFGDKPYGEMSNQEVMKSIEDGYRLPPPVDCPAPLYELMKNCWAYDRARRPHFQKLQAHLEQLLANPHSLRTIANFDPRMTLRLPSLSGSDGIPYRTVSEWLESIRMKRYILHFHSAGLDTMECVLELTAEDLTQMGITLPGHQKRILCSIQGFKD
The experiment in a line: EphA1 activation in HEK 293 cells overexpressing EphA1. Format: cell-based. To be noted: HEK 293 overexpressing EphA1, same concentrations.
Experimental: Cells were plated in 24-well dishes at a density of 100,000 cells/well and grown for 24 hours prior to stimulation with appropriate compounds and ephrins for the given amounts of time. Compounds were prepared in DMSO at 500 times the final concentrations and 0.2% DMSO was used as vehicle control. Following treatment, cells were lysed directly in SDS Gel Loading Buffer and immunoblotted as described previously. […] For immunoprecipitation, 300,000 cells/well were plated in 6-well dishes and lysed in modified RIPA Buffer (20 mM Tris-HCl pH 7.4, 20 mM NaF, 150 mM NaCl, 10% glycerol, 0.1% SDS, 0.5% DCA, 2 mM EDTA, 1% Triton X-100) following treatment. Either 10 μg of ephrin-A1-Fc, or 4 mg of EphA2 mouse monoclonal antibody (Clone D7, Millipore) were used, and mouse IgG was used as a negative control for EphA2 IP. […] For this purpose, HEK 293 cell lines overexpressing EphA1, EphA2, EphA3, EphA4, and EphB3 kinases were utilized.

In test [2] the test system is ERK1/2 and Akt. The experiment in a line: Inhibition of ERK1/2 and Akt activation in A172-A2 cells. It counts as cell-based. To be noted: 50 μM and 100 μM. On the procedure:
Cells were plated in 24-well dishes at a density of 100,000 cells/well and grown for 24 hours prior to stimulation with appropriate compounds and ephrins for the given amounts of time. Compounds were prepared in DMSO at 500 times the final concentrations and 0.2% DMSO was used as vehicle control. Following treatment, cells were lysed directly in SDS Gel Loading Buffer and immunoblotted as described previously. Immunoprecipitation and immunofluorescence staining was performed as described. For immunoprecipitation, 300,000 cells/well were plated in 6-well dishes and lysed in modified RIPA Buffer (20 mM Tris-HCl pH 7.4, 20 mM NaF, 150 mM NaCl, 10% glycerol, 0.1% SDS, 0.5% DCA, 2 mM EDTA, 1% Triton X-100) following treatment. Either 10 μg of ephrin-A1-Fc, or […] of EphA2 mouse monoclonal antibody (Clone D7, Millipore) were used, and mouse IgG was used as a negative control for EphA2 IP.
Activation of EphA2 receptor by ephrin-A1 ligand inhibits both ERK1/2 and Akt kinase activities in most normal cells and a subset of cancer cells. […] We first tested this by utilizing the A172 glioma cells engineered to overexpress EphA2 receptor (A172-A2).

For `COc1cc2nc(N3CCN(C(=O)C4COc5ccccc5O4)CC3)nc(N)c2cc1OC` (centres unmarked) [Doxazosin, 2-[4-(2,3-Dihydro-1,4-benzodioxine-2-carbonyl)piperazin-1-yl]-6,7-dimethoxyquinazolin-4-amine], the EphA1 activation entry in test [1] was “no activation of EphA1”. In addition, in test [2], the “inhibition of Akt and ERK1/2 activation” value is “significant inhibition of Akt and ERK1/2 activation”.
